Measurements: patent US20260021055A1, “Asymmetric Piperazine-Based Cationic Lipids” (TRANSLATE BIO, INC., priority 2022, published 2026)

System: hEPO protein produced in the serum
Experiment: Delivery of human erythropoietin (hEPO) mRNA by intramuscular administration; hEPO protein in serum by ELISA
Type: in vivo, Mice
Conditions: for in vivo protein production (hEPO protein) after delivery of hEPO mRNA: lipid nanoparticles comprising the compound, FIG. 1; for effectiveness in delivering hEPO mRNA compared with control cationic lipid: mice, intramuscular, lipid nanoparticles comprising the lipid, FIG. 1 and Table F
Description: For the hEPO animal dosing studies, the lipid nanoparticles (LNPs) are diluted to […] in 10% trehalose. Mice are dosed intramuscularly (IM) with 0.1 μg in 30 μL volume into right gastrocnemius muscle on the leg of the mouse. Blood samples are collected 6 hours and 24 hours post injection to measure the amount of hEPO protein produced in the serum. The hEPO protein amounts are detected using an ELISA assay from commercially available kits. Lipid nanoparticle formulations described in Table D above encapsulating hEPO mRNA were prepared by Process A as described above for intramuscular (IM) administration in accordance with the above procedure.

Compound	in vivo protein production (hEPO protein) after delivery of hEPO mRNA	effectiveness in delivering hEPO mRNA compared with control cationic lipid
CCCCCCCC/C=C\CCCCCCC(O)CN(CCCCSSCCCN1CC(C)N(CCOC(=O)CCCN(CC(O)CCCCCCCCCC)CC(O)CCCCCCCCCC)CC1C)CC(O)CCCCCC/C=C\CCCCCCCC (stereo not shown) [Compound B1]	high levels of in vivo protein production	more effective in delivering hEPO mRNA than the control cationic lipid DLin-MC3-DMA
CCCCCCCC/C=C\CCCCCCC(O)CN(CCCCSSCCCCN1CC(C)N(CCOC(=O)CCCN(CC(O)CCCCCCCCCC)CC(O)CCCCCCCCCC)CC1C)CC(O)CCCCCC/C=C\CCCCCCCC (stereo not shown) [Compound C1]	high levels of in vivo protein production	more effective in delivering hEPO mRNA than the control cationic lipid DLin-MC3-DMA
